Laboratory results taken from patent US6716603B2, “Nucleic acids encoding a chloride channel protein” (Genaera Corporation, priority 1998, dated 2004).

Columns and labels:
[1] = tested on: IL-9 induced eotaxin; assay: IL-9 induced eotaxin production in murine primary lung cultures (eotaxin ELISA); type: cell-based, mouse; conditions: 100 μM channel blocker, FVB primary lung cultures with mIL-9, FIG. 18
Source text: IL-9 is known to induce eotaxin from lung epithelial cells (Dong, et.al., submitted for publication, Eur. J. Immunol.). In situ expression analysis of IL-9 transgenic mice found ICACC-1 expression to be predominant in airway epithelial cells. These epithelial cells also produce eotaxin, and eotaxin can be induced by IL-9 in these cells as well as primary lung cultures from a variety of different mouse strains. Because eotaxin and ICACC-1 are both induced by IL-9 in lung epithelial cells, it is possible that inhibiting ICACC-1 can inhibit eotaxin or other cytokines such as IL-4 or IL-13 (Doucet et al., J. Clin. Invest. 101:2129-2139, 1998.) that induce eotaxin production in lung epithelial cells. To test this hypothesis, we employed a murine primary lung assays, where lung cells were harvested from FVB/NJ mice as described in Example 5A and processed for in vitro analysis as described in Example 6 for human primary lung culture. Cells were incubated with or without 20 ng/ml recombinant mIL-9 for 48 hours. After 48 hours, conditioned supernatant was collected and analyzed for murine eotaxin production using an eotaxin ELISA kit (R&D Systems). Recombinant murine eotaxin was used to generate a standard curve. […] A culture derived from IL-9 transgenic mouse lung (TG5 lane) was used as a positive control. […]

[2] = tested on: ICACC-1; assay: ICACC-1 RNA expression in lung after intratracheal IL-9 (RT-PCR); type: in vivo, mouse; conditions: C57B6 mice, 50 μl of 0.1 mg/ml IL-9 intratracheal daily for ten days, FIG. 8
Method: Message was analyzed by PCR as described (Nicolaides et al., 1995) and via Northern blot. Primers used to generate murine ICACC-1 message were; sense 5′-[…]-3′ (SEQ ID NO:7) (nucleotides 689-712) and antisense 5′-[…]-3′ (SEQ ID NO:8) (nucleotides 1041-1064) which produce a gene product of 376 bp. DHFR was assayed as an internal control to measure for cDNA integrity using primers previously described (Nicolaides et al., 1991). Amplification conditions used were 95° C. for 30 seconds, 58° C. for 1.5 minutes and 72° C. for 1.5 minutes for 35 cycles. For Northern blot analysis, total RNA derived from Tg5 or FVB lungs was electrophoresed on 1.5% formaldehyde gels, transferred to nylon membranes and probed with a DNA fragment comprising the murine ICACC-1 cDNA.
To confirm that the expression of IL-9 was critically related to the expression of ICACC-1 and to control for genetic background specifically, recombinant murine IL-9 was introduced into the lung of murine strain C57B6. Recombinant IL-9 was instilled into the trachea of anesthetized mice by addition of 50 μl of a 0.1 mg/ml IL-9 solution or vehicle alone (0.1% bovine serum albumin) daily for ten days. […]
Expression of ICACC-1 RNA was measured as described in Example 3.

Row | Molecule | eotaxin production inhibited [1] [%] | ICACC-1 RNA expression in lung (RT-PCR) [2]
1 | O=S(=O)(O)c1cc(N=C=S)ccc1C=Cc1ccc(N=C=S)cc1S(=O)(=O)O [DIDS] | 33 | –
2 | CC(=O)Nc1ccc(C=Cc2ccc(N=C=S)cc2S(=O)(=O)O)c(S(=O)(=O)O)c1 [SITS] | 41 | –
3 | mIL-9: recombinant murine IL-9 (protein, UniProt P15247 19-144, looked up) Interleukin-9: QRCSTTWGIRDTNYLIENLKDDPPSKCSCSGNVTSCLCLSVPTDDCTTPCYREGLLQLTNATQKSRLLPVFHRVKRIVEVLKNITCPSFSCEKPCNQTMAGNTLSFLKSLLGTFQKTEMQRQKSRP | – | expression increased
